Results: PubChem BioAssay (NCI)
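48-hour exposure; five concentrations; linearly interpolated endpoints. Definition used: TGI = concentration required for complete inhibition of growth.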

What was measured:
Assay in all cases: growth of human tumour cells (NCI), 48 h
SF-295 CNS = test system: SF-295 CNS
A498 renal = test system: A498 renal
NCI-H522 lung = test system: NCI-H522 lung
NCI-H460 lung = test system: NCI-H460 lung
MDA-N = test system: MDA-N
HT29 colon = test system: HT29 colon
COLO 205 colon = test system: COLO 205 colon
NCI/ADR-RES ovarian = test system: NCI/ADR-RES ovarian
SK-MEL-5 melanoma = test system: SK-MEL-5 melanoma
MDA-MB-435 = test system: MDA-MB-435
LOX IMVI melanoma = test system: LOX IMVI melanoma
KM12 colon = test system: KM12 colon

| SMILES | TGI (SF-295 CNS) [µM] | TGI (A498 renal) [µM] | TGI (NCI-H522 lung) [µM] | TGI (NCI-H460 lung) [µM] | TGI (MDA-N) [µM] | TGI (HT29 colon) [µM] | TGI (COLO 205 colon) [µM] | TGI (NCI/ADR-RES ovarian) [µM] | TGI (SK-MEL-5 melanoma) [µM] | TGI (MDA-MB-435) [µM] | TGI (LOX IMVI melanoma) [µM] | TGI (KM12 colon) [µM] |
| --- | --- | --- | --- | --- | --- | --- | --- | --- | --- | --- | --- | --- |
| COC(=O)[C@@H]1COC(=O)N1 | > 100 | > 100 | > 100 | > 100 | > 100 | > 100 | > 100 | > 100 | > 100 | > 100 | > 100 | > 100 |
| c1cc2c(cc1[C@@H]1OC[C@@H]3[C@H]1CO[C@H]3c1ccc3c(c1)OCO3)OCO2 | > 100 | > 100 | > 100 | > 100 | > 100 | > 100 | > 100 | > 100 | 33.6 | > 100 | > 100 | 71 |
| S=c1[nH]n2c(COc3cc(Cl)c(OCc4nnc5sc(=S)[nH]n45)cc3Cl)nnc2s1 | > 100 | > 100 | 53.9 | > 100 | > 100 | > 100 | > 100 | > 100 | > 100 | > 100 | > 100 | > 100 |
| CCc1cc2c(c3c1CCCC3=O)CC1(C2)Cc2cc(CC)c3c(c2C1)C(=O)CCC3 | > 100 | > 100 | > 100 | > 100 | > 100 | > 100 | > 100 | > 100 | > 100 | > 100 | > 100 | > 100 |
| CCOC(=O)C1C(c2ccc(OC)cc2)c2c([nH]n(-c3ccccc3)c2=O)CC1(C)O (stereo unspecified) | > 100 | > 100 | > 100 | > 100 | > 100 | > 100 | 50.4 | > 100 | > 100 | > 100 | > 100 | > 100 |
| CC(=O)C(C(C)=O)[C@H]1OC(C)(C)O[C@H]1[C@H]1COC(C)(C)O1 | > 100 | > 100 | 93.3 | > 100 | > 100 | > 100 | 32.5 | > 100 | > 100 | > 100 | > 100 | > 100 |
| Cc1cc(C)nc(NS(=O)(=O)c2ccc(Nc3c4ccccc4nc4ccc(C(=O)Nc5ccc(S(=O)(=O)N=C(N)N)cc5)cc34)cc2)n1 | > 100 | > 100 | > 100 | > 100 | > 100 | > 100 | > 100 | > 100 | > 100 | > 100 | 34.4 | > 100 |
| O=C1c2ccccc2C(=O)c2sc(Nc3cc(Cl)ccc3Cl)nc21 | 17.4 | 41.9 | 18.3 | 21.5 | 3.41 | 36.1 | 34 | 7.31 | 2.98 | 3.85 | 5.78 | 26.5 |
| Cc1ccc2nc(C(=O)O)c(=O)[nH]c2c1 | > 100 | > 100 | > 100 | > 100 | > 100 | > 100 | > 100 | > 100 | > 100 | > 100 | > 100 | > 100 |
| O=C1C2CC[C@@H]3C(=O)C(Cl)(Cl)[C@@H]3CCC2C1(Cl)Cl (stereo partly specified) | > 100 | > 100 | > 100 | > 100 | > 100 | > 100 | > 100 | > 100 | > 100 | > 100 | > 100 | > 100 |
| CSc1nc(C)c2c(n1)N(c1ccc(Cl)cc1)CC2 | > 100 | > 100 | > 100 | > 100 | > 100 | > 100 | > 100 | > 100 | > 100 | > 100 | > 100 | > 100 |
| Cc1cc2c(cc1Cl)Sc1n[nH]c(=O)n1S2(=O)=O | > 100 | 90.8 | > 100 | > 100 | > 100 | > 100 | > 100 | > 100 | > 100 | > 100 | > 100 | > 100 |
| CCC1CN2CCc3c([nH]c4ccccc34)[C@@](C(=O)OC)(c3cc4c(cc3OC)N(C)C3C(O)(C(=O)OC)C(C(=O)OC)C5(CC)C=CCN6CCC43C65)C[C@@H](C2)[C@@H]1C(C)(C)C (stereo partly specified) | 0.555 | 1.12 | 3.56 | 2.34 | 0.424 | > 2.64 | > 6.1 | > 7.23 | 1.25 | 0.462 | 2 | > 5.72 |
| C=CCNC1=C2C[C@@H](C)C[C@@H](OC)[C@H](OC(=O)CCN(C)C)[C@H](C)/C=C(\C)[C@@H](OC(N)=O)[C@H](OC)/C=C\C=C(/C)C(=O)NC(=CC1=O)C2=O | 12.3 | 21.4 | 17.3 | 16.1 | 14.3 | 12.8 | 1.23 | > 80.3 | 12.7 | 13.2 | 11.2 | 1.98 |
| CN(C)C(=O)Oc1ccc(C(=S)Nc2ccccc2)cc1 | > 100 | > 100 | > 100 | > 100 | > 100 | > 100 | > 100 | 91.8 | 55.6 | > 100 | > 100 | > 100 |
| CC(C)=CCc1c2c(c(O)c3c(=O)c4c(oc13)-c1ccc(O)cc1OC4C=C(C)C)C=CC(C)(C)O2 (stereo unspecified) | 28.6 | 34.9 | 26.9 | 30.4 | 27.1 | 28.9 | 37.1 | 34.6 | 28.2 | 23.3 | 23.8 | 21.7 |
| COc1ccc(/C(CC2OC(=O)c3ccccc32)=N\NC(N)=O)cc1 (stereo unspecified) | > 100 | > 100 | > 100 | > 100 | > 100 | > 100 | > 100 | > 100 | > 100 | > 100 | > 100 | > 100 |
| Oc1ccc(SCc2cc(O)ccc2O)cc1 | 39 | > 89.4 | 4.88 | > 86.7 | 28.6 | > 100 | 38.8 | > 57.5 | 22.5 | 27.1 | > 53.1 | 46.9 |
